Each structure is given as a SMILES string.

One test deals with DOHH2 cells. Nature of the test: Cell proliferation assay (MTS), DOHH2 cells, 120 h.
Conditions: not given
The class given is cell-based. An excerpt: (§1) Cell Proliferation Assays
(§2) MTS testing kit was purchased from Promega. The RPMI-1640, Fetal bovine serum and Penicillin-Streptomycin were purchased from Gibco. Dimethyl sulfoxide (DMSO) was purchased from Sigma.
(§3) To investigate whether a compound is able to inhibit the activity of BCL-2 in cells, a mechanism-based assay using DOHH2 (DSMZ No.® ACC 47) and RS4;11 (ATCC® CRL-1873™) cell was developed. In this assay, inhibition of Bcl-2 was detected by the inhibition of DOHH2 cells proliferation. DOHH2 cells were cultured in culture flasks to 40-80% confluence in RPMI-1640 plus 10% fetal bovine serum. Cells were collected and plated onto 96-well plates at desired cell density (5000 cells/well). Plates were incubated overnight at 37° C., with 5% CO2 to adhere. Compounds were added to the plates, and the final compound concentrations were 10000, 3333, 1111, […], 124, 41, 14, 4.6 and 1.5 nM. Plates plated with DOHH2 or RS4;11 cells were placed at 37° C., with 5% CO2 for 120 h (DOHH2) or 72 h (RS4;11) respectively. 20 μl MTS/100 μl medium mixture solution were added to each well and incubate the plates for exactly 2 hours. The reaction was stopped by adding 25 μl 10% SDS per well. Measure absorbance at 490 nm and 650 nm (reference wavelength). IC50 was calculated using GraphPad Prism 5.0.
(§4) Select compounds prepared as described above were assayed according to the biological procedures described herein.
Molecule `CC1(C)CCC(CN2CCN(c3ccc(C(=O)NS(=O)(=O)c4cc5c(c([N+](=O)[O-])c4)N[C@@H](C4CCC(O)CC4)CO5)c(Oc4cnc5[nH]ccc5c4)c3)CC2)=C(c2ccc(Cl)cc2)C1` (stereo partly drawn) [Example 2-245B, (S)-2-((1H-pyrrolo[2,3-b]pyridin-5-yl)oxy)-4-(4-((4′-chloro-5,5-dimethyl-3,4,5,6-tetra-hydro-[1,1′-biphenyl]-2-yl)methyl)piperazin-1-yl)-N-((3-(4-hydroxycyclohexyl)-5-nitro-3,4-dihydro-2H-benzo[b][1,4]oxazin-7-yl)sulfonyl)benzamide] gave an IC50 of 1 nM.

Still in this test, the particulars now being: Homo sapiens, DOHH-2, 120 h.
For `CC1(C)CCC(CN2CCN(c3ccc(C(=O)NS(=O)(=O)c4cc5c(c([N+](=O)[O-])c4)N[C@@H](CN4CCOCC4)CO5)c(Oc4cnc5[nH]ccc5c4)c3)CC2)=C(c2ccc(Cl)cc2)C1` [Example 2-18, (S)-2-((1H-pyrrolo[2,3-b]pyridin-5-yl)oxy)-4-(4-((4′-chloro-5,5-dimethyl-3,4,5,6-tetra-hydro-[1,1′-biphenyl]-2-yl)methyl)piperazin-1-yl)-N-((3-(morpholinomethyl)-5-nitro-3,4-dihydro-2H-benzo[b][1,4]oxazin-7-yl)sulfonyl)benzamide], half-maximal inhibition (IC50) was put at 9 nM.
The same measure, in the same setting: the figure for `CC1(C)CCC(CN2CCN(c3ccc(C(=O)NS(=O)(=O)c4cc5c(c([N+](=O)[O-])c4)N[C@@H](CN4CCOCC4)CN5)c(Oc4cnc5[nH]ccc5c4)c3)CC2)=C(c2ccc(Cl)cc2)C1` [Example 4-4, (R)-2-((1H-pyrrolo[2,3-b]pyridin-5-yl)oxy)-4-(4-((4′-chloro-5,5-dimethyl-3,4,5,6-tetra-hydro-[1,1′-biphenyl]-2-yl)methyl)piperazin-1-yl)-N-((2-(morpholinomethyl)-8-nitro-1,2,3,4-tetrahydroquinoxalin-6-yl)sulfonyl) benzamide] is 28 nM.
On the same count and under the same terms, in the case of `CC1(C)CCC(CN2CCN(c3ccc(C(=O)NS(=O)(=O)c4cc5c(c([N+](=O)[O-])c4)N[C@H](c4ccc(F)cn4)CO5)c(Oc4cnc5[nH]ccc5c4)c3)CC2)=C(c2ccc(Cl)cc2)C1` [Example 2-178, (R)-2-((1H-pyrrolo[2,3-b]pyridin-5-yl)oxy)-4-(4-((4′-chloro-5,5-dimethyl-3,4,5,6-tetra-hydro-[1,1′-biphenyl]-2-yl)methyl)piperazin-1-yl)-N-((3-(5-fluoropyridin-2-yl)-5-nitro-3,4-dihydro-2H-benzo[b][1,4]oxazin-7-yl)sulfonyl)benzamide] it was 28 nM.
On the same count and under the same terms, the figure for `CC1(C)CCC(CN2CCN(c3ccc(C(=O)NS(=O)(=O)c4cc5c(c([N+](=O)[O-])c4)N[C@H](CCO)C5)c(Oc4cnc5[nH]ccc5c4)c3)CC2)=C(c2ccc(Cl)cc2)C1` [Example 1-20, (S)-2-((1H-pyrrolo[2,3-b]pyridin-5-yl)oxy)-4-(4-((4′-chloro-5,5-dimethyl-3,4,5,6-tetra-hydro-[1,1′-biphenyl]-2-yl)methyl)piperazin-1-yl)-N-((2-(2-hydroxyethyl)-7-nitro-indolin-5-yl)sulfonyl)benzamide] is 170 nM; for `CN1CCN(CC[C@@H]2CNc3cc(S(=O)(=O)NC(=O)c4ccc(N5CCN(CC6=C(c7ccc(Cl)cc7)CC(C)(C)CC6)CC5)cc4Oc4cnc5[nH]ccc5c4)cc([N+](=O)[O-])c3N2)CC1` [Example 4-5, (R)-2-((1H-pyrrolo[2,3-b]pyridin-5-yl)oxy)-4-(4-((4′-chloro-5,5-dimethyl-3,4,5,6-tetra-hydro-[1,1′-biphenyl]-2-yl)methyl)piperazin-1-yl)-N-((2-(2-(4-methylpiperazin-1-yl)ethyl)-8-nitro-1,2,3,4-tetrahydroquinoxalin-6-yl)sulfonyl)benzamide] it is 232 nM.
`CC1(C)CCC(CN2CCN(c3ccc(C(=O)NS(=O)(=O)c4cc5c(c([N+](=O)[O-])c4)N[C@@H](c4ccccc4)CO5)c(Oc4cnc5[nH]ccc5c4)c3)CC2)=C(c2ccc(Cl)cc2)C1` [Example 2-172, (S)-2-((1H-pyrrolo[2,3-b]pyridin-5-yl)oxy)-4-(4-((4′-chloro-5,5-dimethyl-3,4,5,6-tetra-hydro[1,1′-biphenyl]-2-yl)methyl)piperazin-1-yl)-N-((5-nitro-3-phenyl-3,4-dihydro-2H-benzo[b][1,4]oxazin-7-yl)sulfonyl)benza-mide] yielded an IC50 of 14 nM.
The same measure, in the same setting: in the case of `CC1(C)CCC(CN2CCN(c3ccc(C(=O)NS(=O)(=O)c4cc5c(c([N+](=O)[O-])c4)N[C@H](CO)C5)c(Oc4cnc5[nH]ccc5c4)c3)CC2)=C(c2ccc(Cl)cc2)C1` [Example 1-6, (S)-2-((1H-pyrrolo[2,3-b]pyridin-5-yl)oxy)-4-(4-((4′-chloro-5,5-dimethyl-3,4,5,6-tetra-hydro-[1,1′-biphenyl]-2-yl)methyl)piperazin-1-yl)-N-((2-(hydroxymethyl)-7-nitroindolin-5-yl)sulfonyl)benzamide] it was 221 nM.
The same measure, in the same setting: the figure for `CC1(C)CCC(CN2CCN(c3ccc(C(=O)NS(=O)(=O)c4cc5c(c([N+](=O)[O-])c4)N[C@@H](c4ccccn4)CO5)c(Oc4cnc5[nH]ccc5c4)c3)CC2)=C(c2ccc(Cl)cc2)C1` [Example 2-171, (S)-2-((1H-pyrrolo[2,3-b]pyridin-5-yl)oxy)-4-(4-((4′-chloro-5,5-dimethyl-3,4,5,6-tetra-hydro-[1,1′biphenyl]-2-yl)methyl)piperazin-1-yl)-N-((5-nitro-3-(pyridin-2-yl)-3,4-di-hydro-2H-benzo[b][1,4]oxazin-7-yl)sulfonyl) benzamide] is 302 nM; for `CC1(C)CCC(CN2CCN(c3ccc(C(=O)NS(=O)(=O)c4cc5c(c([N+](=O)[O-])c4)N[C@@H](CNS(=O)(=O)N4CCOCC4)CO5)c(Oc4cnc5[nH]ccc5c4)c3)CC2)=C(c2ccc(Cl)cc2)C1` [Example 2-67, (S)-2-((1H-pyrrolo[2,3-b]pyriidn-5-yl)oxy)-4-(4-((4′-chloro-5,5-dimethyl-3,4,5,6-tetra-hydro-[1,1′-biphenyl]-2-yl)methyl)piperazin-1-yl)-N-((3-((morpholine-4-sulfonamido)methyl)-5-nitro-3,4-dihydro-2H-benzo[b] [1,4]oxazin-7-yl)sulfonyl)benzamide] it is 1320 nM.
Still for that read-out and setting: the figure for `CC1(C)CCC(CN2CCN(c3ccc(C(=O)NS(=O)(=O)c4cc5c(c([N+](=O)[O-])c4)N[C@@H](CN4CCS(=O)(=NC6CC6)CC4)CO5)c(Oc4cnc5[nH]ccc5c4)c3)CC2)=C(c2ccc(Cl)cc2)C1` [Example 2-124, (S)-2-((1H-pyrrolo[2,3-b]pyridin-5-yl)oxy)-4-(4-((4′-chloro-5,5-dimethyl-3,4,5,6-tetra-hydro-[1,1′-biphenyl]-2-yl)methyl)piperazin-1-yl)-N-((3-((1-(cyclopropylimino)-1-oxi-do-1λ^6-thiomorpholino)methyl)-5-nitro-3,4-dihydro-2H-benzo[b][1,4]oxazin-7-yl)sulfonyl)benzamide] is 649 nM.
Molecule `CC1(C)CCC(CN2CCN(c3ccc(C(=O)NS(=O)(=O)c4cc5c(c([N+](=O)[O-])c4)N[C@H](CN4CCC(C)(O)CC4)C5)c(Oc4cnc5[nH]ccc5c4)c3)CC2)=C(c2ccc(Cl)cc2)C1` [Example 1-4, (S)-2-((1H-pyrrolo[2,3-b]pyridin-5-yl)oxy)-4-(4-((4′-chloro-5,5-dimethyl-3,4,5,6-tetra-hydro-[1,1′-biphenyl]-2-yl)methyl)piperazin-1-yl)-N-((2-((4-hydroxy-4-methylpiperidin-1-yl)methyl)-7-nitroindolin-5-yl)sulfonyl) benzamide] displayed an IC50 of 308 nM.
In turn, `CC1(C)CCC(CN2CCN(c3ccc(C(=O)NS(=O)(=O)c4cc5c(c([N+](=O)[O-])c4)N[C@@H](CN=S4(=O)CCCC4)CO5)c(Oc4cnc5[nH]ccc5c4)c3)CC2)=C(c2ccc(Cl)cc2)C1` [Example 2-76, (S)-2-((1H-pyrrolo[2,3-b]pyridin-5-yl)oxy)-4-(4-((4′-chloro-5,5-dimethyl-3,4,5,6-tetra-hydro-[1,1′-biphenyl]-2-yl)methyl)piperazin-1-yl)-N-((5-nitro-3-(((1-oxidotetrahydro-1λ^6-thiophen-1-ylidene)amino)methyl)-3,4-dihydro-2H-benzo[b][1,4]oxazin-7-yl)sulfo-nyl)benzamide] returned an IC50 of 120 nM.
`COc1ccc([C@@H]2COc3cc(S(=O)(=O)NC(=O)c4ccc(N5CCN(CC6=C(c7ccc(Cl)cc7)CC(C)(C)CC6)CC5)cc4Oc4cnc5[nH]ccc5c4)cc([N+](=O)[O-])c3N2)cc1` [Example 2-169, (R)-2-((1H-pyrrolo[2,3-b]pyridin-5-yl)oxy)-4-(4-((4′-chloro-5,5-dimethyl-3,4,5,6-tetra-hydro-[1,1′-biphenyl]-2-yl)methyl)piperazin-1-yl)-N-((3-(4-methoxyphenyl)-5-nitro-3,4-dihydro-2H-benzo[b][1,4]oxazin-7-yl)sulfonyl)benzamide] registered an IC50 of 39 nM.
Same read-out and setting: the figure for `CC1(C)CCC(CN2CCN(c3ccc(C(=O)NS(=O)(=O)c4cc5c(c([N+](=O)[O-])c4)N[C@@H](Cc4ccc(Cl)cc4)CO5)c(Oc4cnc5[nH]ccc5c4)c3)CC2)=C(c2ccc(Cl)cc2)C1` [Example 2-207, (S)-2-((1H-pyrrolo[2,3-b]pyridin-5-yl)oxy)-4-(4-((4′-chloro-5,5-dimethyl-3,4,5,6-tetra-hydro-[1,1′-phenyl]-2-yl)methyl)piperazin-1-yl)-N-((3-(4-chlorobenzyl)-5-nitro-3,4-dihydro-2H-benzo[b][1,4]oxazin-7-yl)sulfo-nyl)benzamide] is 402 nM.

The test system of another test is RS4;11 cells. Briefly: Cell proliferation assay (MTS), RS4;11 cells, 72 h. The class given is cell-based. Conditions: Homo sapiens, RS4-11, 72 h.
Text: as §1, §2, §3, §4
In turn, `CC1(C)CCC(CN2CCN(c3ccc(C(=O)NS(=O)(=O)c4cc5c(c([N+](=O)[O-])c4)N[C@@H](CN4CCOCC4)CO5)c(Oc4cnc5[nH]ccc5c4)c3)CC2)=C(c2ccc(Cl)cc2)C1` [Example 2-18, (S)-2-((1H-pyrrolo[2,3-b]pyridin-5-yl)oxy)-4-(4-((4′-chloro-5,5-dimethyl-3,4,5,6-tetra-hydro-[1,1′-biphenyl]-2-yl)methyl)piperazin-1-yl)-N-((3-(morpholinomethyl)-5-nitro-3,4-dihydro-2H-benzo[b][1,4]oxazin-7-yl)sulfonyl)benzamide] had an IC50 of 4 nM.
As to `CC1(C)CCC(CN2CCN(c3ccc(C(=O)NS(=O)(=O)c4cc5c(c([N+](=O)[O-])c4)N[C@@H](CN4CCOCC4)CN5)c(Oc4cnc5[nH]ccc5c4)c3)CC2)=C(c2ccc(Cl)cc2)C1` [Example 4-4, (R)-2-((1H-pyrrolo[2,3-b]pyridin-5-yl)oxy)-4-(4-((4′-chloro-5,5-dimethyl-3,4,5,6-tetra-hydro-[1,1′-biphenyl]-2-yl)methyl)piperazin-1-yl)-N-((2-(morpholinomethyl)-8-nitro-1,2,3,4-tetrahydroquinoxalin-6-yl)sulfonyl) benzamide], 14 nM corresponded to half-maximal inhibition (IC50).

The term IC50 denotes the midpoint of a concentration-inhibition curve.

The record behind these values is patent US11091478B2 (Fochon Pharmaceuticals, Ltd., priority 2017, dated 2021).
